From ChEMBL document CHEMBL1148380, “Quantitative structure-activity relationships for gammadelta T cell activation by bisphosphonates” (J Med Chem, 2004)

Experiment: pIC50 value for stimulation of TNF-alpha release in gamma-delta T cells, using individual observed maximum TNF-alpha release
Type: functional, cell-based
Conditions: Homo sapiens, T-cell

IC50 [µM] | SMILES
10 | CC(CCCCc1ccccc1)CCC(O)(P(=O)(O)O)P(=O)(O)O (stereo not drawn)
7.41 | O=P(O)(O)C(Nc1ccccn1)P(=O)(O)O
229 | O=P(O)(O)C(O)(CCc1cccnc1)P(=O)(O)O
10 | O=P(O)(O)C(CNc1ccncc1)P(=O)(O)O
4.9 | O=P(O)(O)C(CNc1ccccn1)P(=O)(O)O
102 | NCCCCC(O)(P(=O)(O)O)P(=O)(O)O
91.2 | CCCCCC(O)(P(=O)(O)O)P(=O)(O)O
14.5 | O=P(O)(O)C(Nc1cccnc1)P(=O)(O)O
19.5 | CN(CCc1ccccc1)CCC(O)(P(=O)(O)O)P(=O)(O)O
7.76 | O=P(O)(O)C(O)(Cc1c[nH]cn1)P(=O)(O)O
97.7 | O=P(O)(O)C(O)(CCNCCCOc1ccccc1)P(=O)(O)O
5.25 | O=P(O)(O)C(O)(C[n+]1cc[nH]c1)P(=O)(O)O
251 | Nc1ccc(CC(O)(P(=O)(O)O)P(=O)(O)O)cc1
5.75 | O=P(O)(O)C(O)(Cc1ccccn1)P(=O)(O)O
66.1 | O=P(O)(O)C(N1CCCCC1)P(=O)(O)O
63.1 | CN(CCCc1ccccc1)CCC(O)(P(=O)(O)O)P(=O)(O)O
4.37 | Cc1cccnc1NC(P(=O)(O)O)P(=O)(O)O
214 | CCCCCCC(O)(P(=O)(O)O)P(=O)(O)O
12.6 | Cc1ccnc(NC(P(=O)(O)O)P(=O)(O)O)c1
21.4 | O=P(O)(O)C(O)(Cc1ccncc1)P(=O)(O)O
12 | Cc1cccc(NC(P(=O)(O)O)P(=O)(O)O)n1
8.91 | CCC(C)CNC(P(=O)(O)O)P(=O)(O)O (stereo not drawn)
398 | O=P(O)(O)C(O)(Cc1ccccc1)P(=O)(O)O
39.8 | O=P(O)(O)C(NC1CCCCC1)P(=O)(O)O [(CYCLOHEXYLAMINO)METHYLENEDIPHOSPHONIC ACID]
43.7 | O=P(O)(O)C(NC1CCCCCCC1)P(=O)(O)O [(CYCLOOCTYLAMINO)METHYLENEDIPHOSPHONIC ACID]
25.1 | O=P(O)(O)C(NC1CCCC1)P(=O)(O)O [(CYCLOPENTYLAMINO)METHYLENEDIPHOSPHONIC ACID]

SMILES | IC50 [µM]
CC(N)CC(O)(P(=O)(O)O)P(=O)(O)O (stereo not drawn) | 63.1
CCCCNC(P(=O)(O)O)P(=O)(O)O [(BUTYLAMINO)METHYLENEDIPHOSPHONIC ACID] | 10.2
O=P(O)(O)C(NC1CCC1)P(=O)(O)O [(CYCLOBUTYLAMINO)METHYLENEDIPHOSPHONIC ACID] | 56.2
CCN(CC)C(P(=O)(O)O)P(=O)(O)O [(DIETHYLAMINO)METHYLENEDIPHOSPHONIC ACID] | 132

Experiment: pIC50 value for stimulation of TNF-alpha release in gamma-delta T cells, using a constrained maximum TNF-alpha release of 2700 pg/mL
Type: functional, cell-based
Conditions: Homo sapiens, T-cell

IC50 [µM] | SMILES
16.2 | CC(CCCCc1ccccc1)CCC(O)(P(=O)(O)O)P(=O)(O)O (stereo not drawn)
15.5 | O=P(O)(O)C(Nc1ccccn1)P(=O)(O)O
912 | O=P(O)(O)C(O)(CCc1cccnc1)P(=O)(O)O
16.2 | O=P(O)(O)C(CNc1ccncc1)P(=O)(O)O
14.5 | O=P(O)(O)C(CNc1ccccn1)P(=O)(O)O
214 | NCCCCC(O)(P(=O)(O)O)P(=O)(O)O
1620 | CCCCCC(O)(P(=O)(O)O)P(=O)(O)O
24 | O=P(O)(O)C(Nc1cccnc1)P(=O)(O)O
22.9 | CN(CCc1ccccc1)CCC(O)(P(=O)(O)O)P(=O)(O)O
12 | O=P(O)(O)C(O)(Cc1c[nH]cn1)P(=O)(O)O
141 | O=P(O)(O)C(O)(CCNCCCOc1ccccc1)P(=O)(O)O
20000 | Nc1ccc(CC(O)(P(=O)(O)O)P(=O)(O)O)cc1
5.62 | O=P(O)(O)C(O)(Cc1ccccn1)P(=O)(O)O
120 | O=P(O)(O)C(N1CCCCC1)P(=O)(O)O
120 | CN(CCCc1ccccc1)CCC(O)(P(=O)(O)O)P(=O)(O)O
4.9 | Cc1cccnc1NC(P(=O)(O)O)P(=O)(O)O
2090 | CCCCCCC(O)(P(=O)(O)O)P(=O)(O)O
14.5 | Cc1ccnc(NC(P(=O)(O)O)P(=O)(O)O)c1
20.9 | O=P(O)(O)C(O)(Cc1ccncc1)P(=O)(O)O
28.2 | Cc1cccc(NC(P(=O)(O)O)P(=O)(O)O)n1
19.5 | CCC(C)CNC(P(=O)(O)O)P(=O)(O)O (stereo not drawn)
2820 | O=P(O)(O)C(O)(Cc1ccccc1)P(=O)(O)O
46.8 | O=P(O)(O)C(NC1CCCCC1)P(=O)(O)O [(CYCLOHEXYLAMINO)METHYLENEDIPHOSPHONIC ACID]
110 | O=P(O)(O)C(NC1CCCCCCC1)P(=O)(O)O [(CYCLOOCTYLAMINO)METHYLENEDIPHOSPHONIC ACID]
55 | O=P(O)(O)C(NC1CCCC1)P(=O)(O)O [(CYCLOPENTYLAMINO)METHYLENEDIPHOSPHONIC ACID]

SMILES | IC50 [µM]
CC(N)CC(O)(P(=O)(O)O)P(=O)(O)O (stereo not drawn) | 110
CCCCNC(P(=O)(O)O)P(=O)(O)O [(BUTYLAMINO)METHYLENEDIPHOSPHONIC ACID] | 12.9
O=P(O)(O)C(NC1CCC1)P(=O)(O)O [(CYCLOBUTYLAMINO)METHYLENEDIPHOSPHONIC ACID] | 126
CCN(CC)C(P(=O)(O)O)P(=O)(O)O [(DIETHYLAMINO)METHYLENEDIPHOSPHONIC ACID] | 2880

Experiment: Inhibitory activity, for stimulation of TNF-alpha release in gamma-delta T cells, using a constrained maximum TNF-alpha release of 2700 pg/mL
Type: functional, cell-based
Conditions: Homo sapiens, T-cell

IC50 [µM] | SMILES
16 | CC(CCCCc1ccccc1)CCC(O)(P(=O)(O)O)P(=O)(O)O (stereo not drawn)
16 | O=P(O)(O)C(Nc1ccccn1)P(=O)(O)O
917 | O=P(O)(O)C(O)(CCc1cccnc1)P(=O)(O)O
16 | O=P(O)(O)C(CNc1ccncc1)P(=O)(O)O
14 | O=P(O)(O)C(CNc1ccccn1)P(=O)(O)O
213 | NCCCCC(O)(P(=O)(O)O)P(=O)(O)O
1610 | CCCCCC(O)(P(=O)(O)O)P(=O)(O)O
24 | O=P(O)(O)C(Nc1cccnc1)P(=O)(O)O
23 | CN(CCc1ccccc1)CCC(O)(P(=O)(O)O)P(=O)(O)O
12 | O=P(O)(O)C(O)(Cc1c[nH]cn1)P(=O)(O)O
143 | O=P(O)(O)C(O)(CCNCCCOc1ccccc1)P(=O)(O)O
19900 | Nc1ccc(CC(O)(P(=O)(O)O)P(=O)(O)O)cc1
5.6 | O=P(O)(O)C(O)(Cc1ccccn1)P(=O)(O)O
122 | O=P(O)(O)C(N1CCCCC1)P(=O)(O)O
121 | CN(CCCc1ccccc1)CCC(O)(P(=O)(O)O)P(=O)(O)O
4.9 | Cc1cccnc1NC(P(=O)(O)O)P(=O)(O)O
2110 | CCCCCCC(O)(P(=O)(O)O)P(=O)(O)O
14 | Cc1ccnc(NC(P(=O)(O)O)P(=O)(O)O)c1
21 | O=P(O)(O)C(O)(Cc1ccncc1)P(=O)(O)O
28 | Cc1cccc(NC(P(=O)(O)O)P(=O)(O)O)n1
19 | CCC(C)CNC(P(=O)(O)O)P(=O)(O)O (stereo not drawn)
2820 | O=P(O)(O)C(O)(Cc1ccccc1)P(=O)(O)O
47 | O=P(O)(O)C(NC1CCCCC1)P(=O)(O)O [(CYCLOHEXYLAMINO)METHYLENEDIPHOSPHONIC ACID]
110 | O=P(O)(O)C(NC1CCCCCCC1)P(=O)(O)O [(CYCLOOCTYLAMINO)METHYLENEDIPHOSPHONIC ACID]
55 | O=P(O)(O)C(NC1CCCC1)P(=O)(O)O [(CYCLOPENTYLAMINO)METHYLENEDIPHOSPHONIC ACID]

SMILES | IC50 [µM]
CC(N)CC(O)(P(=O)(O)O)P(=O)(O)O (stereo not drawn) | 110
CCCCNC(P(=O)(O)O)P(=O)(O)O [(BUTYLAMINO)METHYLENEDIPHOSPHONIC ACID] | 13
O=P(O)(O)C(NC1CCC1)P(=O)(O)O [(CYCLOBUTYLAMINO)METHYLENEDIPHOSPHONIC ACID] | 127
CCN(CC)C(P(=O)(O)O)P(=O)(O)O [(DIETHYLAMINO)METHYLENEDIPHOSPHONIC ACID] | 2910

Experiment: Inhibitory activity, for stimulation of TNF-alpha release in gamma-delta T cells, using individual observed maximum TNF-alpha release
Type: functional, cell-based
Conditions: Homo sapiens, T-cell

IC50 [µM] | SMILES
9.9 | CC(CCCCc1ccccc1)CCC(O)(P(=O)(O)O)P(=O)(O)O (stereo not drawn)
7.4 | O=P(O)(O)C(Nc1ccccn1)P(=O)(O)O
228 | O=P(O)(O)C(O)(CCc1cccnc1)P(=O)(O)O
9.9 | O=P(O)(O)C(CNc1ccncc1)P(=O)(O)O
4.8 | O=P(O)(O)C(CNc1ccccn1)P(=O)(O)O
102 | NCCCCC(O)(P(=O)(O)O)P(=O)(O)O
90 | CCCCCC(O)(P(=O)(O)O)P(=O)(O)O
14 | O=P(O)(O)C(Nc1cccnc1)P(=O)(O)O
19 | CN(CCc1ccccc1)CCC(O)(P(=O)(O)O)P(=O)(O)O
7.8 | O=P(O)(O)C(O)(Cc1c[nH]cn1)P(=O)(O)O
98 | O=P(O)(O)C(O)(CCNCCCOc1ccccc1)P(=O)(O)O
5.2 | O=P(O)(O)C(O)(C[n+]1cc[nH]c1)P(=O)(O)O
251 | Nc1ccc(CC(O)(P(=O)(O)O)P(=O)(O)O)cc1
5.7 | O=P(O)(O)C(O)(Cc1ccccn1)P(=O)(O)O
66 | O=P(O)(O)C(N1CCCCC1)P(=O)(O)O
63 | CN(CCCc1ccccc1)CCC(O)(P(=O)(O)O)P(=O)(O)O
4.3 | Cc1cccnc1NC(P(=O)(O)O)P(=O)(O)O
213 | CCCCCCC(O)(P(=O)(O)O)P(=O)(O)O
13 | Cc1ccnc(NC(P(=O)(O)O)P(=O)(O)O)c1
22 | O=P(O)(O)C(O)(Cc1ccncc1)P(=O)(O)O
12 | Cc1cccc(NC(P(=O)(O)O)P(=O)(O)O)n1
9 | CCC(C)CNC(P(=O)(O)O)P(=O)(O)O (stereo not drawn)
395 | O=P(O)(O)C(O)(Cc1ccccc1)P(=O)(O)O
40 | O=P(O)(O)C(NC1CCCCC1)P(=O)(O)O [(CYCLOHEXYLAMINO)METHYLENEDIPHOSPHONIC ACID]
44 | O=P(O)(O)C(NC1CCCCCCC1)P(=O)(O)O [(CYCLOOCTYLAMINO)METHYLENEDIPHOSPHONIC ACID]
25 | O=P(O)(O)C(NC1CCCC1)P(=O)(O)O [(CYCLOPENTYLAMINO)METHYLENEDIPHOSPHONIC ACID]

SMILES | IC50 [µM]
CC(N)CC(O)(P(=O)(O)O)P(=O)(O)O (stereo not drawn) | 63
CCCCNC(P(=O)(O)O)P(=O)(O)O [(BUTYLAMINO)METHYLENEDIPHOSPHONIC ACID] | 10
O=P(O)(O)C(NC1CCC1)P(=O)(O)O [(CYCLOBUTYLAMINO)METHYLENEDIPHOSPHONIC ACID] | 56
CCN(CC)C(P(=O)(O)O)P(=O)(O)O [(DIETHYLAMINO)METHYLENEDIPHOSPHONIC ACID] | 132
